Patent publication US20210298299A1 (priority 2018, published 2021)
Read-outs that look alike come from different tables or passages of the source.

Key:
Format in all cases: in vivo
[1] = tested on: rice blast fungus Pyricularia oryzae; details: alone
[2] = tested on: wheat speckled leaf blotch fungus Septoria tritici; experiment: Test for wheat speckled leaf blotch (Septoria tritici); details: alone
Description: Test for Wheat Speckled Leaf Blotch (Septoria tritici)
(§1) The agrochemical formulations diluted to predetermined concentrations were applied to wheat plants at a predetermined amount with a spray gun. After air-drying, the wheat plants were spray-inoculated with a spore suspension of the wheat speckled leaf blotch fungus Septoria tritici (1.0×10^7 spores/mL). After that, the wheat pots were kept in a greenhouse under light conditions at 15° C. and 100% RH to induce the development of the disease. At 17 days after the inoculation, the disease area percentage was indexed on a scale of 0 to 10 to evaluate the control efficacy. The control value is expressed in percentage (%) as shown below or in index form as in Example 1.
Disease Severity Index Scale
0: No manifestation of disease
1: Lesion area percentage is 1 to 10%.
2: Lesion area percentage is 11 to 20%.
3: Lesion area percentage is 21 to 30%.
4: Lesion area percentage is 31 to 40%.
5: Lesion area percentage is 41 to 50%.
6: Lesion area percentage is 51 to 60%.
7: Lesion area percentage is 61 to 70%.
8: Lesion area percentage is 71 to 80%.
9: Lesion area percentage is 81 to 90%.
10: Lesion area percentage is 91 to 100%.
Control value (%)=(disease severity index in non-treatment plot−disease severity index in treatment plot)×100/disease severity index in non-treatment plot [Math. 3]

[3] = tested on: cucumber anthracnose fungus Colletotrichum orbiculare; details: alone, rating scale of Test Example 1
[4] = tested on: leaf rust fungus Puccinia recondita; experiment: Test for control efficacy against wheat leaf rust; details: alone, scale of 0 to 10
Description: Test for Control Efficacy Against Wheat Leaf Rust
as §1, with “the” for “the wheat speckled”, “rust” for “blotch”, “Puccinia recondita” for “Septoria tritici”, “7” for “17”, “efficacy.” for “efficacy. The control value is expressed in percentage (%) as shown below or in index form as in Example 1.”

[5] = tested on: cucumber gray mold fungus Botrytis cinerea; experiment: Test for control efficacy against cucumber gray mold; details: alone, from diameter of lesion area
Description: Test for Control Efficacy Against Cucumber Gray Mold
The agrochemical formulations diluted to predetermined concentrations were applied to the foliage of cucumber plants (variety: Suuyou) at the one-leaf stage grown in individual pots. The application rate was 50 mL per pot. On the day following the application, 6-mm-diameter paper disks were impregnated with a spore suspension of the cucumber gray mold fungus Botrytis cinerea cultured on PSA medium, and inoculated onto cucumber true leaves. The pots were kept at a temperature of 20° C. and a humidity of 100%. At 6 days after the inoculation, the control value was determined by the equation 4 shown below.
Control value (%)=(diameter of lesion area in non-treatment plot−diameter of lesion area in treatment plot)×100/diameter of lesion area in non-treatment plot [Math. 4]

[6] = tested on: tomato late blight fungus Phytophthora infestans; details: alone, rating scale of Test Example 2
[7] = tested on: Laodelphax striatellus; experiment: Test for control efficacy against Laodelphax striatellus; details: alone, 30 days after the agrochemical treatment
Text: Test for Control Efficacy Test Against Laodelphax striatellus
Adults of the test insect were released onto rice plants (variety: Kinmaze, 95 days after transplantation) grown in individual 2-L pots (8 females and 5 males per pot). At 11 days after the insect release (when hatched larvae were observed), mixed formulations of compound [1-7] and other agrochemicals and each individual agrochemical (prescribed effective doses) were separately applied. After air-drying and at 10 days after the agrochemical treatment, adults of the test insect were additionally released onto the rice plants (8 females and 5 males per pot). At 30 days after the agrochemical treatment, the number of survivors was measured, and the control value was calculated by equation 6. In addition, the expected value E for the mixed use was calculated by Colby's equation as described in Test Example 1. When the actual control efficacy of combined treatment with two different agrochemicals is greater than the expected value E, the combination can be regarded as having synergistic effect.
Control value (%)=(1−number of survivors/number of survivors in control plot)×100 [Math. 6]
Assuming that the control value for “no grade” is 49%, when the control values of the two different agrochemicals are both 49%, the expected value E calculated by Colby's equation is as follows: E=(49+49)−(49×49/100)=73.99. The control value of 73.99 corresponds to grade C. Therefore, when both the agrochemicals are graded as no grade, the expected value is C.

[8] = tested on: Plutella xylostella; experiment: Test for control efficacy against Plutella xylostella; details: alone
Text: Test for Control Efficacy Against Plutella xylostella
Brassica oleracea var. capitata (variety: YR Seitoku) seedlings were planted in a glass greenhouse, and after reaching the 12- to 15-leaf stage, the seedlings were inoculated with 3rd-instar larvae of Plutella xylostella. The number of surviving larvae per three plants before agrochemical treatment was counted. A mixed formulation of compound [1-2] and flubendiamide (prepared according to Formulation Example 5) and each individual agrochemical were separately diluted to predetermined concentrations in water and applied to the Brassica oleracea var. capitata plants. The number of surviving larvae was counted at 2 and 6 days after the application, and the control efficacy was calculated by the equation 5 shown below. In addition, the expected value E was calculated by Colby's equation as described in Test Example 1.
Control efficacy (%)=100−{(Ta×Cb)/(Tb×Ca)}×100 [Math. 5]
Ta=number of survivors after agrochemical treatment in treatment plot
Tb=number of survivors before agrochemical treatment in treatment plot […]
As a result of the test for control efficacy against Plutella xylostella, the control efficacy of the composition composed of compound […] was greater than the expected value E calculated by Colby's equation from the control efficacy of the individual compounds. […]

Fc1ccc([C@]2(Cn3cncn3)O[C@H]2c2ccccc2Cl)cc1 (racemic) [Epoxiconazole 8EC, epoxiconazole]
Control value ([1]; 0.5 ppm, ten-point scale): 0.0 | Control value ([1]; 2 ppm, ten-point scale): 3.0 | Control value ([1]; 8 ppm, ten-point scale): 10 | Control value (%) ([2]; 0.4 ppm, Compound [1-5] series): 0% | Control value (%) ([2]; 1.1 ppm, Compound [1-5] series): 0% | Control value (%) ([2]; 2 ppm, Compound [1-7] series): 0.0% | Control value (%) ([2]; 3.3 ppm, Compound [1-5] series): 16% | Control value (%) ([2]; 8 ppm, Compound [1-7] series): 6.0% | Control value (%) ([2]; 10 ppm, Compound [1-5] series): 86% | Control value ([3]; 0.5 ppm): 0.0 | Control value ([3]; 2 ppm): 0.0 | Control value ([4]; 0.5 ppm): 7.0 | Control value ([4]; 2 ppm): 10.0 | Control value ([5]; 67 ppm): 55% | Control value ([5]; 200 ppm): 100%

CO/C=C(/C(=O)OC)c1ccccc1Oc1cc(Oc2ccccc2C#N)ncn1 [Azoxystrobin 20SC, azoxystrobin]
Control value ([1]; 0.3 ppm, ten-point scale): 1.0 | Control value ([1]; 3 ppm, ten-point scale): 10 | Control value ([3]; 0.3 ppm): 2.0 | Control value ([3]; 3 ppm): 8.0 | Control value ([4]; 0.3 ppm): 0.0 | Control value ([4]; 3 ppm): 9.0 | Control value ([6]; 0.3 ppm): 0.0 | Control value ([6]; 3 ppm): 2.0 | Grade ([7]; 100 ppm): No grade (less than 50%) | Grade ([7]; 500 ppm): No grade (less than 50%)

O=C(Nc1ccccc1-c1ccc(Cl)cc1)c1cccnc1Cl [Boscalid 50WG, boscalid]
Control value ([5]; 2 ppm): 8% | Control value ([5]; 7 ppm): 18% | Control value ([5]; 22 ppm): 20%

CCC(Nc1ncnc(C)c1Cl)c1ccc(OC(F)F)cc1 (stereo not drawn) [Diflumetorim 10EC, diflumetorim]
Control value ([1]; 10 ppm, ten-point scale): 8.0 | Control value ([3]; 10 ppm): 2.0 | Control value ([4]; 10 ppm): 1.0

CC1(C(=O)Nc2ccc(O)c(Cl)c2Cl)CCCCC1 [Fenhexamid 50SC, fenhexamid]
Control value ([5]; 7 ppm): 0% | Control value ([5]; 22 ppm): 0% | Control value ([5]; 200 ppm): 53%

N#Cc1c[nH]cc1-c1cccc2c1OC(F)(F)O2 [Fludioxonil 20SC, fludioxonil]
Control value ([1]; 3 ppm, ten-point scale): 6.0 | Control value ([1]; 10 ppm, ten-point scale): 9.0 | Control value ([3]; 3 ppm): 7.0 | Control value ([3]; 10 ppm): 9.5 | Control value ([4]; 3 ppm): 0.0 | Control value ([4]; 10 ppm): 0.0 | Control value ([4]; 200 ppm): 4.0 | Control value ([5]; 7 ppm): 0% | Control value ([5]; 22 ppm): 59%

O=C(NCCc1ncc(C(F)(F)F)cc1Cl)c1ccccc1C(F)(F)F [Fluopyram 50SC, fluopyram]
Control value ([1]; regardless of the concentration): 0 | Control value (%) ([2]; 10 ppm, Compound [1-7] series): 0.0% | Control value ([3]; 3 ppm): 0.0 | Control value ([3]; 10 ppm): 2.0

Cn1cc(C(=O)Nc2ccccc2-c2cc(F)c(F)c(F)c2)c(C(F)F)n1 [Fluxapyroxad 6EC, fluxapyroxad]
Control value ([1]; 0.3 ppm, ten-point scale): 0.0 | Control value ([1]; 1 ppm, ten-point scale): 0.0 | Control value (%) ([2]; 0.07 ppm, Compound [1-5] series): 16% | Control value (%) ([2]; 0.22 ppm, Compound [1-5] series): 31% | Control value (%) ([2]; 0.67 ppm, Compound [1-5] series): 65% | Control value (%) ([2]; 1 ppm, Compound [1-7] series): 0.0% | Control value (%) ([2]; 2.0 ppm, Compound [1-5] series): 98% | Control value (%) ([2]; 6.0 ppm, Compound [1-5] series): 99% | Control value ([3]; 1 ppm): 0.0 | Control value ([6]; 1 ppm): 0.0

OC(Cc1ccccc1Cl)(Cn1nc[nH]c1=S)C1(Cl)CC1 (stereo not drawn) [Prothioconazole 25EC, prothioconazole]
Control value ([1]; 6.25 ppm, ten-point scale): 5.0 | Control value ([1]; 25 ppm, ten-point scale): 9.0 | Control value ([3]; 6.25 ppm): 8.0 | Control value ([3]; 25 ppm): 10 | Control value ([4]; 6.25 ppm): 0.0 | Control value ([4]; 25 ppm): 5.0 | Control value ([6]; 25 ppm): 0.0

COC(=O)N(OC)c1ccccc1COc1ccn(-c2ccc(Cl)cc2)n1 [Pyraclostrobin 25EC, pyraclostrobin]
Control value ([3]; 3 ppm): 7.0 | Control value ([4]; 1 ppm): 5.0 | Control value ([4]; 3 ppm): 9.0 | Control value ([6]; 3 ppm): 4.0 | Grade ([8]; 10 ppm): No grade (less than 50%) | Grade ([8]; 50 ppm): A (100%) | Grade ([7]; 10 ppm): No grade (less than 50%) | Grade ([7]; 50 ppm): A (100%)

O=C(Nc1ccccc1-c1ccc(F)c(F)c1)c1nccnc1C(F)(F)F [Pyraziflumid 20SC, pyraziflumid]
Control value (%) ([2]; 0.2 ppm, Compound [1-5] series): 1% | Control value (%) ([2]; 0.7 ppm, Compound [1-5] series): 53% | Control value (%) ([2]; 2 ppm, Compound [1-7] series): 6.0% | Control value (%) ([2]; 2.2 ppm, Compound [1-5] series): 92% | Control value (%) ([2]; 6.7 ppm, Compound [1-5] series): 99% | Control value (%) ([2]; 20 ppm, Compound [1-5] series): 100% | Control value ([3]; 0.5 ppm): 0.0 | Control value ([3]; 2 ppm): 0.0 | Control value ([4]; 2 ppm): 2.0 | Control value ([6]; 2 ppm): 0.0

CC(C)(C)C(O)(CCc1ccc(Cl)cc1)Cn1cncn1 (stereo not drawn) [Tebuconazole 25EW, tebuconazole]
Control value ([1]; 0.3 ppm, ten-point scale): 0.0 | Control value ([1]; 1 ppm, ten-point scale): 0.0 | Control value (%) ([2]; 1 ppm, Compound [1-7] series): 0.0% | Control value ([3]; 0.3 ppm): 0.0 | Control value ([6]; 1 ppm): 0.0
